From US6340692B1, “Injectable anesthetic” (priority 1999, dated 2002)

Key:
male guinea pigs = test: Infiltration anesthesia, Beulbring-Wade method; assay type: in vivo
Protocol: The pharmacological activity of chinoxicaine has been evaluated using the characteristics of: i) strength of anesthesia, ii) latent period, and iii) duration of anesthesia. A study of infiltration anesthesia was conducted according to the Beulbring-Wade method on male guinea pigs. The median effective concentration (EC50) was 0.1%. Latent period was about 1.5 minutes. The duration of deep anesthesia was: i) 25 minutes for the 0.1% solution, ii) 140.5 minutes for a 0.25% solution, iii) 310.8 minutes for a 0.5% solution, and iv) 313.8 minutes for a 1.0% solution. On the basis of specific pharmacological activity data, described in greater detail below, chinoxicaine is preferably provided as either a 0.25% or 0.5% solution in 250 mL bottles for use in infiltration anesthesia, and as a 1.0% or 2.0% solution in 5 mL ampoules for conduction and epidural anesthesia. In alternative embodiments, the anesthesia solution includes a 0.9% solution of sodium chloride.

sciatic nerve = test: Sciatic nerve conduction anesthesia, Camaugis-Tekman method; assay type: in vivo, rats; details: for duration of the anesthesia: 0.2 mL
Protocol: A study of sciatic nerve conduction anesthesia in rats was conducted in accordance with the Camaugis-Tekman method. Prior to injection of the anesthesia, the rat motor activity was evaluated by applying a compression to the animal's feet. Then, a 0.2 mL volume of chinoxicaine solution was injected into the sciatic nerve area of the pronated lower extremity. With the application of a subsequent compression to the its feet, the animal's reaction was evaluated by observing if the animal pulled apart its toes in a ‘fan-shaped’ manner when suspended by its tail. It was determined that both 1.0% and 2.0% concentrations of chinoxicaine solutions produced fast, deep, and prolonged anesthesia. The anesthesia reached fill extent within 2.0±0.3 minutes, with either concentration.

male chinchilla rabbits = test: Epidural anesthesia in rabbits; assay type: in vivo; details: for effective duration of epidural anesthesia: chinoxicaine 2.0% solution, Lidocaine as comparison
Protocol: A study of epidural anesthesia was conducted on male chinchilla rabbits. The epidural puncture was made in the area of the third and fourth lumbar vertebrae by means of a Tuohi-Peridur needle. A 2.0% solution of chinoxicaine was injected into the epidural area in a volume determined in accordance with the following formula: [formula]

white non-breeding rats = test: Conduction anesthesia, injection under the tail skin; assay type: in vivo; details: 1.0 mL under the tail skin
Protocol: A study of conduction anesthesia was carried out on white non-breeding rats weighing 180 to 220 grams. The anesthetic solution was injected under the tail skin on four sides in a 1.0 mL volume at concentrations ranging from 0.1% to 1.0%. Duration of the anesthetic solution was 120.3±7.1 minutes for the 0.1% concentration, 300.5±15.5 minutes for a 0.25% concentration, 306.0±16.2 minutes for a 0.5% concentration, and 320.0±13.1 minutes for the 1.0% concentration.

[1] = Conduction anesthesia, some models (general statements); assay type: in vivo
[2] = infiltration anesthesia, male guinea pigs

Structure (SMILES): CCCn1c(=O)c(C(=O)NCCN(CC)CC)c(O)c2ccccc21.Cl [chinoxicaine, hydrochloride diethylaminoethylamide 1-propyl-2 oxy-4-hydroxyquinolin-3-carbonic acid]
- duration of deep anesthesia (male guinea pigs; 0.1% solution): 25 min
- duration of deep anesthesia (male guinea pigs; 0.25% solution): 140.5 min
- duration of deep anesthesia (male guinea pigs; 0.5% solution): 310.8 min
- effectiveness relative to Lidocaine or Azacaine (male guinea pigs; 0.5% solution, long infiltration applications): ≤ 2.5 times
- duration of deep anesthesia (male guinea pigs; 1.0% solution): 313.8 min
- increase in activity as compared to Lidocaine (male guinea pigs; infiltration anesthesia): two-fold increase
- increase in activity over Trimecaine (male guinea pigs; infiltration anesthesia): comparable increase
- Latent period (male guinea pigs; [2]): about 1.5 minutes
- median effective concentration (EC50) (male guinea pigs; [2]): 0.1%
- duration of the anesthesia (sciatic nerve; 1.0% concentration): 138.0 ± 8.9 min
- duration of the anesthesia (sciatic nerve; 2.0% concentration): 205.0 ± 12.6 min
- time until anesthesia reached full extent (sciatic nerve; either 1.0% or 2.0% concentration, 0.2 mL into sciatic nerve area): ≤ 2.0 ± 0.3 min
- time from injection to deep and prolonged anesthesia (male chinchilla rabbits; 2.0% solution, epidural): ≤ 5.0 min
- effective duration of epidural anesthesia (male chinchilla rabbits; epidural): at least 200 minutes
- increase in activity as compared to Lidocaine (male chinchilla rabbits; epidural anesthesia): two-fold increase
- duration of long and deep epidural and peridermal anesthesia (male chinchilla rabbits; rabbits): about 270 minutes
- Duration of conduction anesthesia (white non-breeding rats; 0.1% concentration): 120.3 ± 7.1 min
- Duration of conduction anesthesia (white non-breeding rats; 0.25% concentration): 300.5 ± 15.5 min
- Duration of conduction anesthesia (white non-breeding rats; 0.5% concentration): 306.0 ± 16.2 min
- Duration of conduction anesthesia (white non-breeding rats; 1.0% concentration): 320.0 ± 13.1 min
- effective duration relative to Trimecaine or Lidocaine ([1]; 0.5% solution, conduction applications): as much as twice
- increase in activity over Trimecaine ([1]; conduction anesthesia): comparable increase

Structure (SMILES): CCN(CC)CC(=O)Nc1c(C)cccc1C [Lidocaine, reference compound]
- effective duration of epidural anesthesia (male chinchilla rabbits; epidural): about 100 minutes
